Data on three substances can be found in article PMC4149317 (Acta biomaterialia, 2013).

Series [1] concerns the target T1, VEGF (rhVEGF165) (Homo sapiens, UniProt P15692).
T1 sequence (P15692 1-191 isoform P15692-4): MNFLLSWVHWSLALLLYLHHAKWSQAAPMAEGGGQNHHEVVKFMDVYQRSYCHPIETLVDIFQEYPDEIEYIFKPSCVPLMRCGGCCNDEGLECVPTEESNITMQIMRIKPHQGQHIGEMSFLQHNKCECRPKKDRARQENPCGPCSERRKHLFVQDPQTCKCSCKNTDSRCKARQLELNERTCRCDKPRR
The experiment in a line: VEGF binding to PEG microspheres in serum-containing and albumin-only solutions. Conditions: 0.4% peptide density, albumin-only solution (1.25 wt.% BSA in PBS); p < 0.05 (Fig. 2D).

The conditions of series [2]: ref [27], cited from earlier work.
The next series deals with VEGF. Conditions: soluble VBP vs soluble VBPWT; ref [27]; cited from earlier work.
The test system of the next series is endothelial cells. Conditions: VEGF supplement to endothelial cells; ref [30]; cited from earlier work.
The target in series [3] is T1, VEGF (rhVEGF165). Nature of the series: Heparin modulation of VEGF binding to microspheres.

With CEFdAdYdLdIDFNWEYPASK [VBP], the “KD, VBP-VEGF vs VBPWT-VEGF, albumin-only solution” value at VEGF (rhVEGF165) [1] is given as “exhibited a lower KD than VBPWT-VEGF”. In series [2] (four D-substituted amino acids vs wild-type), the “Stability against protease-mediated degradation” value was “enhanced peptide stability against protease-mediated degradation”. Moreover, the “Serum stability of soluble peptide” value in series [2] (soluble VBP vs soluble VBPWT) is “higher than that of soluble VBPWT”. In the series on VEGF, the “VEGF binding affinity of soluble peptide” value was “higher than that of soluble VBPWT”.
Regarding VEGF, in the series on endothelial cells, the “Endothelial proliferation below 1 ng ml^−1 VEGF” value is listed as “proliferation is decreased at VEGF concentrations below 1 ng ml^−1” and the “VEGF concentration of maximal endothelial proliferation” value is 1 to 1.2 ng/mL.
Regarding heparin, the “Effect of soluble heparin on specificity of VEGF binding” value at VEGF (rhVEGF165) [3] (10 µg ml^−1 UFH in albumin-containing solution, 1.6% peptide density (Fig. 3C)) is on record as “reduced non-specific binding of VEGF”. The “Effect of soluble heparin on VEGF binding affinity” value at VEGF (rhVEGF165) [3] (physiologic level of soluble heparin, UFH 10 µg ml^−1) is listed as “increased VEGF binding affinity”.
